Experimental data from PubChem BioAssay AID1195 (EPA DSSTox, 2008).

Tested on: human maximum recommended daily dose, FDA database
Experiment: DSSTox (FDAMDD) FDA Maximum (Recommended) Daily Dose Database
Conditions: hits give low values
Source text: The Food and Drug Administration (FDA) Center for Drug Evaluation and Research, Office of Pharmaceutical Science, Informatics and Computational Safety Analysis Staff's Maximum Recommended Daily Dose (FDAMDD) database contains values for over 1200 pharmaceuticals listed in Martindale: The Extra Pharmacopoeia (1973, 1983, and 1993) and The Physicians' Desk Reference (1995 and 1999). Some classes of chemicals were excluded from the FDAMDD database due to their unsuitability for most QSAR modeling programs. These were inorganic chemicals, high molecular weight polymers (>5000 Daltons), fibers, salts, mixtures of organic chemicals, and small molecules (<100 Daltons). FDAMDD is the non-proprietary portion of the database that was used in the QSAR analysis reported in the Main Citation. DSSTox FDAMDD has fewer substance records than the original MRDD Source database due to consolidation of partial structures (i.e., complexed entities) into a single record and elimination of duplicate entries. DSSTox FDAMDD also differs from the MRDD Source database in presenting complete structural information pertaining to the actual salt or complexed form corresponding to the listed ChemicalName and CASRN. According to the Source authors, there are a number of cases where multiple related forms or derivatives of a drug were listed as separate records but were assumed to fall under the same clinical toxicity assessment and, therefore, assigned the same Dose_MRDD_mg activity value. For the DSSTox FDAMDD, we have labeled these derivatives in the ChemClass_MRDD_grouping field and provide their counts in the ChemicalReplicateCount field to highlight their special nature.
Maximum recommended daily dose (or maximum recommended therapeutic dose) values were determined from pharmaceutical clinical trials that employed an oral route of exposure and daily treatments, usually for 3-12 months. Drugs were given as single or divided dose treatment regimens to achieve desired pharmacological effects. Roughly 5% of the pharmaceuticals in the FDAMDD data file were antineoplastics and anesthetics and were administered intravenously and/or intramuscularly. When separate MRDDs were reported for different routes of exposure, only the oral MRDD was included in the data file and only MRDD values reported for the average adult patient were used. Pharmaceuticals that are administered orally are usually tested over a limited range of doses and have MRDDs reported as mg/day. The mg/day unit was converted to mg/kg-body weight (bw)/day based upon an average adult weighing 60 kg. In contrast, the dose unit for most antineoplastic drug MRDDs is reported as mg/m2 which was converted to mg/kg-bw/day using the formula mg/kg-bw/day = mg/m2/37 for an average adult. Additionally, a few drugs had MRDDs reported in parts per million (ppm) which were converted to mg/kg-bw/day on the basis that 1000 ppm equals 25 mg/kg-bw/day for an average 60 kg adult. Activity Score is mapping of LOG10(1/Dose_MRDD_mmol) spanning activity range [MIN, MAX] onto Integer 1-100 Activity range, where 100 is highest potency and 1 is lowest potency: ActivityScore = 100 * INTEGER[(LOGINV_MRDD_mmol - MIN)/(MAX […] MIN)]. Activity Outcome is "active" for all substances, since Dose_MRDD_mmol is reported for all substances.

[1] = TherapeuticCategory: antidiabetic
[2] = TherapeuticCategory: sedative, hypnotic
[3] = TherapeuticCategory: antibacterial
[4] = TherapeuticCategory: anticholinergic
[5] = TherapeuticCategory: progestogen
[6] = TherapeuticCategory: antineoplastic

Compound CNS(=O)(=O)Cc1ccc2[nH]cc(CCN(C)C)c2c1 has a maximum recommended daily dose (mmol/kg-bw/day) (TherapeuticCategory: antimigraine) of 0.000677.

For CCOc1cc(CC(=O)N[C@@H](CC(C)C)c2ccccc2N2CCCCC2)ccc1C(=O)O, the maximum recommended daily dose (mmol/kg-bw/day) [1] was 0.00059.

In the case of C=CCC1(C(C)CC)C(=O)NC(=O)NC1=O (stereo not given), the maximum recommended daily dose (mmol/kg-bw/day) [2] is reported as 0.0148.

Work on C#C[C@]1(O)CC[C@H]2[C@@H]3CCC4=CC(=O)CCC4=C3C=C[C@@]21CC yielded a maximum recommended daily dose (mmol/kg-bw/day) (TherapeuticCategory: antigonadotropin) of 0.000135.

For O=C(Cn1cnnn1)N[C@@H]1C(=O)N2C(C(=O)O)=C(CSc3nncs3)CS[C@H]12, the maximum recommended daily dose (mmol/kg-bw/day) [3] was 0.151.

For COC(=O)C1=C(C)NC(C)=C(C(=O)OC(C)C)C1c1cccc2nonc12 (stereo not given), the maximum recommended daily dose (mmol/kg-bw/day) (TherapeuticCategory: antihypertensive, antianginal) was 0.00045.

With CC(N)Cc1ccccc1 (stereo not given) the maximum recommended daily dose (mmol/kg-bw/day) (TherapeuticCategory: CNS stimulant, anorexic) was 0.0074.

Work on CCC1NC(=O)c2cc(S(N)(=O)=O)c(Cl)cc2N1 (stereo not given) yielded a maximum recommended daily dose (mmol/kg-bw/day) (TherapeuticCategory: diuretic) of 0.0115.

NC(CSCC(=O)O)C(=O)O (stereo not given) was tested, and the maximum recommended daily dose (mmol/kg-bw/day) (TherapeuticCategory: mucolytic, expectorant) was 0.209.

In the case of C[N+]1(C)CCN(CC(O)(c2ccccc2)C2CCCCC2)CC1 (stereo not given), the maximum recommended daily dose (mmol/kg-bw/day) [4] is reported as 0.0039.

Work on CCN(CC)CCCC(C)Nc1c2ccc(Cl)cc2nc2ccc(OC)cc12 (stereo not given) yielded a maximum recommended daily dose (mmol/kg-bw/day) (TherapeuticCategory: antithelmintic, antimalarial) of 0.0125.

For O=S(=O)(O)CCS, the maximum recommended daily dose (mmol/kg-bw/day) (TherapeuticCategory: mucolytic, uroprotective) was 0.0281.

Compound COc1ccc2c(c1)[C@]13CCCC[C@@H]1[C@H](C2)N(C)CC3 has a maximum recommended daily dose (mmol/kg-bw/day) (TherapeuticCategory: antitussive) of 0.00737.

For N[C@@H]1[C@@H](O)[C@@H](O[C@@H]2[C@@H](O)[C@H](O[C@H]3O[C@H](CO)[C@@H](O)[C@H](O)[C@H]3N)[C@@H](N)C[C@H]2N)O[C@H](CO)[C@H]1O, the maximum recommended daily dose (mmol/kg-bw/day) [3] was 0.031.

With CC(=O)OCC1=C(C(=O)O)N2C(=O)[C@@H](NC(=O)[C@H](N)c3ccccc3)[C@H]2SC1 the maximum recommended daily dose (mmol/kg-bw/day) [3] was 0.0821.

Work on COc1cc(C(=O)N2CCOCC2)cc(OC)c1OC yielded a maximum recommended daily dose (mmol/kg-bw/day) (TherapeuticCategory: sedative) of 0.178.

COc1ccc(CN(CCN(C)C)c2ccccn2)cc1 gave a maximum recommended daily dose (mmol/kg-bw/day) (TherapeuticCategory: antihistaminic) of 0.00438.

Compound Cc1ccc(C(=O)c2cc(O)c(O)c([N+](=O)[O-])c2)cc1 has a maximum recommended daily dose (mmol/kg-bw/day) (TherapeuticCategory: antidepressant, catechol-O-methyltransferase inhibitor) of 0.0122.

CC(C)(C)NCC(O)COc1ccccc1C#N (stereo not given) was tested, and the maximum recommended daily dose (mmol/kg-bw/day) (TherapeuticCategory: antihypertensive, antianginal, antiarrhythmic) was 0.00269.

For Cc1c(C)c2c(c(C)c1O)CCC(C)(COc1ccc(CC3SC(=O)NC3=O)cc1)O2 (stereo not given), the maximum recommended daily dose (mmol/kg-bw/day) [1] was 0.0226.

For CN=C(NC#N)NCCSCc1nc[nH]c1C, the maximum recommended daily dose (mmol/kg-bw/day) (TherapeuticCategory: antiulcerative) was 0.159.

CN1c2cc(O)c(N=NC(N)=O)cc2CC1S(=O)(=O)O (stereo not given) was tested, and the maximum recommended daily dose (mmol/kg-bw/day) (TherapeuticCategory: hemostatic) was 0.00931.

Work on O=[N+]([O-])c1cc(Cl)cc(-c2cc(Cl)cc([N+](=O)[O-])c2O)c1O yielded a maximum recommended daily dose (mmol/kg-bw/day) (TherapeuticCategory: none) of 0.0058.

CO[C@@H]1[C@@H](O[C@@H]2O[C@H](C)[C@@H](O[C@H]3C[C@@](C)(O)[C@@H](O)[C@H](C)O3)[C@H](N(C)C)[C@H]2O)[C@@H](CC=O)C[C@@H](C)[C@@H](O[C@@H]2CC[C@H](N(C)C)[C@@H](C)O2)/C=C/C=C/C[C@@H](C)OC(=O)C[C@H]1O showed a maximum recommended daily dose (mmol/kg-bw/day) [3] of 0.0791.

C[N+](C)(C)C[C@H](O)CC(=O)[O-] gave a maximum recommended daily dose (mmol/kg-bw/day) (TherapeuticCategory: antihyperlipoproteinemic) of 0.307.

With O=c1cc[nH]c(=S)[nH]1 the maximum recommended daily dose (mmol/kg-bw/day) (TherapeuticCategory: thyroid depressant) was 0.026.

With CCCC(CCC)C(=O)OC1C[C@H]2CC[C@@H](C1)[N+]2(C)C (stereo not given in full) the maximum recommended daily dose (mmol/kg-bw/day) [4] was 0.0069.

O=c1[nH]cnc2[nH]ncc12 gave a maximum recommended daily dose (mmol/kg-bw/day) (TherapeuticCategory: antiurolithic) of 0.0977.

CC(=O)Nc1c(I)c(NC(C)=O)c(I)c(C(=O)O)c1I was tested, and the maximum recommended daily dose (mmol/kg-bw/day) (TherapeuticCategory: diagnostic aid) was 0.761.

In the case of CC(C(=O)O)c1ccc(C(=O)c2ccccc2)s1 (stereo not given), the maximum recommended daily dose (mmol/kg-bw/day) (TherapeuticCategory: anti inflammatory) is reported as 0.0384.

Compound O=C(O)c1cc(N=Nc2ccc(S(=O)(=O)Nc3ccccn3)cc2)ccc1O has a maximum recommended daily dose (mmol/kg-bw/day) (TherapeuticCategory: treatment of ulcerative colitis and Crohn's disease) of 0.334.

For NCCCNCCSP(=O)(O)O, the maximum recommended daily dose (mmol/kg-bw/day) (TherapeuticCategory: mucolytic) was 0.115.

Work on C[n+]1ccccc1/C=N/O yielded a maximum recommended daily dose (mmol/kg-bw/day) (TherapeuticCategory: cholinesterase inhibitor) of 0.193.

CCN(CC)CCOC(=O)c1ccc(N)cc1Cl showed a maximum recommended daily dose (mmol/kg-bw/day) (TherapeuticCategory: local anesthetic) of 0.0308.

Compound Oc1ccc2c3c1O[C@H]1[C@@H](O)CC[C@@]4(O)[C@@H](C2)N(CC2CCC2)CC[C@]314 has a maximum recommended daily dose (mmol/kg-bw/day) (TherapeuticCategory: narcotic analgesic) of 0.0028.

Compound O=C(NCC1CCCCN1)c1cc(OCC(F)(F)F)ccc1OCC(F)(F)F (stereo not given) has a maximum recommended daily dose (mmol/kg-bw/day) (TherapeuticCategory: antiarrhythmic) of 0.0121.

For CN[C@@H](C)[C@@H](O)c1ccccc1, the maximum recommended daily dose (mmol/kg-bw/day) (TherapeuticCategory: l-form as bronchodilator, d-form as decongestant) was 0.0242.

Work on CC(=O)[C@H]1CC[C@H]2[C@@H]3C=CC4=CC(=O)CC[C@@]4(C)[C@@H]3CC[C@]12C yielded a maximum recommended daily dose (mmol/kg-bw/day) [5] of 0.0016.

In the case of Cc1nc(NS(=O)(=O)c2ccc(N)cc2)oc1C, the maximum recommended daily dose (mmol/kg-bw/day) [3] is reported as 0.125.

CC(=O)CCCCn1c(=O)c2c(ncn2C)n(C)c1=O gave a maximum recommended daily dose (mmol/kg-bw/day) (TherapeuticCategory: vasodilator) of 0.0719.

COc1cccc2c1C(=O)c1c(O)c3c(c(O)c1C2=O)C[C@@](O)(C(C)=O)C[C@@H]3O[C@H]1C[C@H](N)[C@H](O)[C@H](C)O1 gave a maximum recommended daily dose (mmol/kg-bw/day) [6] of 0.00205.

C=CCC1(C(C)C)C(=O)NC(=O)NC1=O was tested, and the maximum recommended daily dose (mmol/kg-bw/day) [2] was 0.0127.

With CCNC(C)Cc1cccc(C(F)(F)F)c1 (stereo not given) the maximum recommended daily dose (mmol/kg-bw/day) (TherapeuticCategory: anorexic) was 0.00865.

In the case of O=C(N[C@H](CO)[C@H](O)c1ccc([N+](=O)[O-])cc1)C(Cl)Cl, the maximum recommended daily dose (mmol/kg-bw/day) (TherapeuticCategory: antibacterial, antirickettsial) is reported as 0.309.

Compound CO/N=C(\C(=O)N[C@@H]1C(=O)N2C(C(=O)O)=C(CSc3nc(C)c(CC(=O)O)s3)CS[C@H]12)c1csc(N)n1 has a maximum recommended daily dose (mmol/kg-bw/day) [3] of 0.057.

CCCCNc1cc(C(=O)O)cc(S(N)(=O)=O)c1Oc1ccccc1 was tested, and the maximum recommended daily dose (mmol/kg-bw/day) (TherapeuticCategory: diuretic) was 0.000458.

Work on NS(=O)(=O)c1cc(C2(O)NC(=O)c3ccccc32)ccc1Cl (stereo not given) yielded a maximum recommended daily dose (mmol/kg-bw/day) (TherapeuticCategory: diuretic, antihypertensive) of 0.00246.

CC[C@H](C)C(=O)O[C@H]1C[C@@H](C)C=C2C=C[C@H](C)[C@H](CC[C@@H]3C[C@@H](O)CC(=O)O3)[C@H]21 gave a maximum recommended daily dose (mmol/kg-bw/day) (TherapeuticCategory: antihypercholesterolemic) of 0.00329.

In the case of CC(O)(P(=O)(O)O)P(=O)(O)O, the maximum recommended daily dose (mmol/kg-bw/day) (TherapeuticCategory: calcium regulator) is reported as 0.0971.

CC(C)(C)NC[C@H](O)COc1nsnc1N1CCOCC1 gave a maximum recommended daily dose (mmol/kg-bw/day) (TherapeuticCategory: antihypertensive, antianginal, antiarrhythmic, antiglaucomic) of 0.00316.

OCCN1CCN(CCCN2c3ccccc3C=Cc3ccccc32)CC1 was tested, and the maximum recommended daily dose (mmol/kg-bw/day) (TherapeuticCategory: antidepressant, antipsychotic) was 0.0138.

C#C[C@]1(O)CC[C@H]2[C@@H]3CCC4=CC(=O)CC[C@@H]4[C@H]3CC[C@@]21C was tested, and the maximum recommended daily dose (mmol/kg-bw/day) [5] was 5.6e-05.

In the case of Clc1ccccc1CN1CCc2sccc2C1, the maximum recommended daily dose (mmol/kg-bw/day) (TherapeuticCategory: platelet aggregation inhibitor) is reported as 0.0158.

In the case of O=C(CCNNC(=O)c1ccncc1)NCc1ccccc1, the maximum recommended daily dose (mmol/kg-bw/day) (TherapeuticCategory: antidepressant) is reported as 0.0112.

For CCOC(=O)c1c(C)cc2c(CO)n[nH]c(=O)c2c1C, the maximum recommended daily dose (mmol/kg-bw/day) (TherapeuticCategory: phosphodiesterase inhibitor) was 0.724.

Work on OCCN1C[C@H](O)[C@@H](O)[C@H](O)[C@H]1CO yielded a maximum recommended daily dose (mmol/kg-bw/day) [1] of 0.0241.

Nc1ncn([C@@H]2O[C@H](CO)[C@@H](O)[C@H]2O)c(=O)n1 was tested, and the maximum recommended daily dose (mmol/kg-bw/day) [6] was 0.0831.

C(=C\c1ccccc1)/CN1CCN(C(c2ccccc2)c2ccccc2)CC1 was tested, and the maximum recommended daily dose (mmol/kg-bw/day) (TherapeuticCategory: antihistaminic, peripheral vasodilator) was 0.0102.

Work on CCC1(c2ccccc2)CCC(=O)NC1=O (stereo not given) yielded a maximum recommended daily dose (mmol/kg-bw/day) [2] of 0.0383.

Work on CCN(CCCCOC(=O)c1ccc(OC)c(OC)c1)C(C)Cc1ccc(OC)cc1 (stereo not given) yielded a maximum recommended daily dose (mmol/kg-bw/day) (TherapeuticCategory: antispasmodic) of 0.0157.
